Results as given in patent US20220365070A1, “COMPOSITIONS, SYSTEMS, AND METHODS FOR IDENTIFYING A COMPOUND THAT MODULATES ONE OR MORE CHARACTERISTICS ASSOCIATED WITH A RBM20 CONDENSATE AND/OR A RBM20 POLYPEPTIDE” (Dewpoint Therapeutics, Inc., priority 2019, published 2022).

Tested on: cytoplasmic mutant R636S RBM20 condensates in H9C2 cells
Assay: Screening assay for compounds that modulate cytoplasmic mutant R636S RBM20 condensates (fluorescence imaging)
Format: cell-based, rat
Details: H9C2 cells transiently transfected with R636S RBM20-Dendra2; 20 μM test compound; incubated 24 hours; versus DMSO
Description: H9C2 cells were engineered using transient transfection to express a mutant R636S RBM20 polypeptide linked to a Dendra2 label. Following transfection, cells were incubated to allow for RBM20 polypeptide expression for about 16 hours. H9C2 cells were seeded into 384-well plates, and admixed with a control (DMSO) or 20 μM test compound, and then incubated for 24 hours prior to fixation, staining (e.g., with DAPI), and capturing of fluorescent images. H9C2 cells not transfected with mutant R636S RBM20 polypeptide served as controls. Three replicates were run for each compound. Fluorescent images of cells, and/or portions of cells, were captured using a DeltaVision wide-field deconvoluted system.
Non-transfected H9C2 cells served as control. […] Their down-regulation levels are indicated as Z score under each panel.

SMILES	effect on cytoplasmic mutant R636S RBM20 condensates
O=C1Nc2cc(Br)ccc2/C1=C1/Nc2ccccc2/C1=N\O [BIO]	able to reduce cytoplasmic mutant R636S RBM20 condensates
CCN(CC)CCCC(C)Nc1c2ccc(Cl)cc2nc2ccc(OC)cc12.Cl.Cl (stereo not drawn) [Quinacrine 2HCl]	increased cytoplasmic mutant R636S RBM20 condensates
CC(C)[C@]12O[C@H]1[C@@H]1O[C@]13[C@]1(O[C@H]1C[C@H]1C4=C(CC[C@@]13C)C(=O)OC4)[C@@H]2O [Triptolide]	able to reduce cytoplasmic mutant R636S RBM20 condensates
Cn1ncc(Cl)c1-c1cc(C(=O)N[C@H](CN)Cc2ccc(F)c(F)c2)oc1Cl [Uprosertib]	able to reduce cytoplasmic mutant R636S RBM20 condensates
CN1CCN(Cc2ccc(NC(=O)Cc3ccc(Oc4cc(NC(=O)C5CC5)ncn4)cc3)cc2C(F)(F)F)CC1 [WS6]	able to reduce cytoplasmic mutant R636S RBM20 condensates
COc1ccc(C[C@H]2NC[C@H](O)[C@H]2OC(C)=O)cc1 [anisomycin]	able to reduce cytoplasmic mutant R636S RBM20 condensates
